The target of test [1] is T1, human dopamine D3 receptors (Homo sapiens, UniProt P35462).
T1 construct: expressed in transfected cells; host or cells: HEK-293
The test can be described thus: Dopamine D3 receptor binding ([125I]-iodosulpride displacement). The protocol:
(§1) Each assay mixture was run in triplicate. • The incubation buffer contained 50 mM tris, 120 mM NaCl, 5 mM KCl, 2 mM CaCl2, 2 mM MgCl2 and 0.1% bovine serum albumin, 10 μM quinolone and 0.1% ascorbic acid (prepared fresh daily). […] Each assay mixture was run in triplicate. • The incubation buffer contained 50 mM tris, 120 mM NaCl, 5 mM KCl, 2 mM CaCl2, 2 mM MgCl2 and 0.1% bovine serum albumin. The buffer was adjusted to pH 7.4 with HCl. • Measurement and Analysis: • After having been incubated at 25° C. for 60 minutes, the assay mixtures were filtered through a Whatman GF/B glass fiber filter under vacuum using a cell collecting device. The filters were transferred to scintillation viols using a filter transfer system. After 4 ml of Ultima Gold® (Packard) have been added, the samples were shaken for one hour and the radioactivity was then counted in a Beta-Counter (Packard, Tricarb 2000 or 2200CA).

The target in test [2] is T2, human dopamine D2L receptors (long isoform) (Homo sapiens, UniProt P14416).
T2 construct: expressed in transfected cells; host or cells: HEK-293
The test can be described thus: Dopamine D2L receptor binding ([125I] iodospiperone displacement). Particulars: selectivity ratio of receptor binding constants, D2L versus D3, HEK-293 membranes. Here is the method:
as §1

[3] abbreviates: membranes of HEK-293 cells stably expressing human D3 receptor, 0.1 nM [125I]-iodosulpride, 25° C., 60 minutes, read-out: Ki(D3)*.

The structures appear in SMILES notation. Where a name gives a salt, the structure may show the parent alone. Read-outs that look alike come from different tables or passages of the source.

T2 sequence (P14416 whole entry, canonical isoform): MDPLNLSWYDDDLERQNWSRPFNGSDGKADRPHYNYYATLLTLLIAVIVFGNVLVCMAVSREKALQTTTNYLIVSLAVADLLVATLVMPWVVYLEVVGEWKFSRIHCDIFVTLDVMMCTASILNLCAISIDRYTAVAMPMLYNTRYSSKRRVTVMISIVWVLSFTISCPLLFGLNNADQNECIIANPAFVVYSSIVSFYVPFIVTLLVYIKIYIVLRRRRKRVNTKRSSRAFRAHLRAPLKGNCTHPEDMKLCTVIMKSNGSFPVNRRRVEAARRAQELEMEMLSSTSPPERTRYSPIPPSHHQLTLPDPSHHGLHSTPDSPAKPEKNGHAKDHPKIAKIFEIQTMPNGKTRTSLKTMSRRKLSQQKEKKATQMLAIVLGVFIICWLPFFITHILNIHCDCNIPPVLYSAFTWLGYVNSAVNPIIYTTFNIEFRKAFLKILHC
T1 sequence (P35462 whole entry): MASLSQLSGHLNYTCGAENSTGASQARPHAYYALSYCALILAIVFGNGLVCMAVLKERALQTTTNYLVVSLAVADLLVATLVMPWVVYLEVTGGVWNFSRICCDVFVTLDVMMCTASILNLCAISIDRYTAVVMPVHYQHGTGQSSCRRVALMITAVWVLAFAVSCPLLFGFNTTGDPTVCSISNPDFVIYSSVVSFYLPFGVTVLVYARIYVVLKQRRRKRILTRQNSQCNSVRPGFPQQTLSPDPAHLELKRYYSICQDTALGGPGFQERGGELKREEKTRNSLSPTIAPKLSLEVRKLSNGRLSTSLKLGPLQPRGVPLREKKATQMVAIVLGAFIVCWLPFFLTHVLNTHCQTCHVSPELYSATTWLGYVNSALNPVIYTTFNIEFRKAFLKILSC

The term Ki denotes the dissociation constant of the complex between target and ligand, obtained from inhibition or displacement. `CCCN(CCC)CCc1ccc(CS(=O)(=O)c2ccc(OC(F)(F)F)cc2)cc1` [Example 26, Dipropyl-{2-[4-(4-trifluoromethoxy-benzenesulfonylmethyl)-phenyl]-ethyl}-dipropyl-amine×HCl]: the Ki in test [1] turned out to be 3.9 nM. For the same compound, the “Ki(D2)*/Ki(D3)*” value in test [2] is 170.
With `CCCNCCc1ccc(NS(=O)(=O)c2ccc(C(C)C)cc2)cn1` [Example 10, 4-Isopropyl-N-[6-(2-propylamino-ethyl)-pyridin-3-yl]-benzenesulfonamide×2HCl], the Ki in test [1] (setting [3]) is 42 nM. The “Ki(D2)*/Ki(D3)*” value in test [2] came to 53.
With `C=CCNCCc1ccc(N(CCC)S(=O)(=O)c2ccc(C(C)C)cc2)cc1.Cl` [Example 15, N-[4-(2-Allylamino-ethyl)-phenyl]-4-isopropyl-N-propyl-benzenesulfonamide×HCl], the Ki in test [1] (setting [3]) was found to be 22 nM. The “Ki(D2)*/Ki(D3)*” value in test [2] amounted to 22.
Regarding `CCCN(CCC)CCc1ccc(N(C)S(=O)(=O)c2ccc(C(C)C)cc2)cc1` [Example 9, N-[4-(2-Dipropylamino-ethyl)-phenyl]-4-isopropyl-N-methyl-benzenesulfonamide×HCl], in test [1] (setting [3]), the Ki is 2 nM. Besides, the “Ki(D2)*/Ki(D3)*” value in test [2] is given as 40.
As for `C=CCNCCc1ccc(NS(=O)(=O)c2ccc(C(C)C)cc2)cc1.Cl` [Example 13, N-[4-(2-Allylamino-ethyl)-phenyl]-4-isopropyl-benzenesulfonamide×HCl], the Ki in test [1] (setting [3]) came out at 1.7 nM. Moreover, the “Ki(D2)*/Ki(D3)*” value in test [2] is 74.
In test [1], `CCCN[C@H](C)Cc1ccc(NS(=O)(=O)c2ccc(OC(F)(F)F)cc2)cc1` [Example 2, N-[4-((R)-2-Propylamino-propyl)-phenyl]-4-trifluoromethoxy-benzenesulfonamide] gave a Ki of 21 nM. Further, the “Ki(D2)*/Ki(D3)*” value in test [2] is 57.
Regarding `CC(C)c1ccc(S(=O)(=O)Nc2ccc(CCNCC3CC3)cc2)cc1` [Example 7, N-{4-[2-(Cyclopropylmethyl-amino)-ethyl]-phenyl}-4-isopropyl-benzenesulfonamide×HCl], in test [1] (setting [3]), the Ki came out at 18 nM. Moreover, the “Ki(D2)*/Ki(D3)*” value in test [2] turned out to be 23.
As to `CCCN(CCC)CCc1ccc(CS(=O)(=O)c2ccc(C(C)C)cc2)cc1` [Example 25, Dipropyl-{2-[4-(4-isopropyl-benzenesulfonylmethyl)-phenyl]-ethyl}-amine×HCl], the Ki in test [1] (setting [3]) worked out at 0.5 nM. For the same compound, the “Ki(D2)*/Ki(D3)*” value in test [2] is recorded as 175.
Regarding `C=CCNCCc1ccc(N(C)S(=O)(=O)c2ccc(OC(F)(F)F)cc2)cc1` [Example 17, N-[4-(2-Allylamino-ethyl)-phenyl]-N-methyl-4-trifluoromethoxy-benzenesulfonamide×HCl], in test [1] (setting [3]), the Ki is 34 nM. For the same compound, in test [2], the “Ki(D2)*/Ki(D3)*” value is recorded as 75.
In the case of `C=CCN(CC=C)CCc1ccc(NS(=O)(=O)c2ccc(C(C)C)cc2)cc1` [Example 19, N-[4-(2-Diallylamino-ethyl)-phenyl]-4-isopropyl-benzenesulfonamide×HCl], the Ki in test [1] (setting [3]) was found to be 2.7 nM. The “Ki(D2)*/Ki(D3)*” value in test [2] worked out at 42.
With `C=CCNCCc1ccc(NS(=O)(=O)c2ccc(OC(F)(F)F)cc2)cc1.Cl` [Example 16, N-[4-(2-Allylamino-ethyl)-phenyl]-4-trifluoromethoxy-benzenesulfonamide×HCl], the Ki in test [1] (setting [3]) was 31 nM. For the same compound, in test [2], the “Ki(D2)*/Ki(D3)*” value is reported as 79.
On to `C=CCNCCc1ccc(N(C)S(=O)(=O)c2ccc(C(C)C)cc2)cc1.Cl` [Example 14, N-[4-(2-Allylamino-ethyl)-phenyl]-4-isopropyl-N-methyl-benzenesulfonamide×HCl], for which, in test [1] (setting [3]), the Ki was 27 nM. For the same compound, the “Ki(D2)*/Ki(D3)*” value in test [2] is reported as 40.
With `C=CCNCCc1ccc(N(CCC)S(=O)(=O)c2ccc(OC(F)(F)F)cc2)cc1.Cl` [Example 18, N-[4-(2-Allylamino-ethyl)-phenyl]-N-propyl-4-trifluoromethoxy-benzenesulfonamide×HCl], the Ki in test [1] (setting [3]) was determined as 37 nM. In addition, the “Ki(D2)*/Ki(D3)*” value in test [2] is on record as 24.
Regarding `C=CCN(CC=C)CCc1ccc(NS(=O)(=O)c2ccc(OC(F)(F)F)cc2)cc1` [Example 20, N-[4-(2-Diallylamino-ethyl)-phenyl]-4-trifluoromethoxy-benzenesulfonamide×HCl], in test [1] (setting [3]), the Ki was found to be 64 nM. Also, the “Ki(D2)*/Ki(D3)*” value in test [2] is 65.
For the compound `CCCNC(C)Cc1ccc(NS(=O)(=O)c2ccc(C(C)C)cc2)cc1.Cl` (centres unmarked) [Example 3, 4-Isopropyl-N-[4-(2-propylamino-propyl)-phenyl]-benzenesulfonamide×HCl], the Ki in test [1] (setting [3]) worked out at 2.8 nM. In test [2], the “Ki(D2)*/Ki(D3)*” value is 33.
The like results for `CCCNCCc1ccc(NS(=O)(=O)c2ccc(C(C)C)cc2)cc1.Cl` [Example 6, 4-Isopropyl-N-[4-(2-propylamino-ethyl)-phenyl]-benzenesulfonamide×HCl] were, in that order, 2.2 nM and 22.
In turn, `C=CCNCCc1cccc(NS(=O)(=O)c2ccc(C(C)C)cc2)c1` [Example 21, N-[3-(2-Allylamino-ethyl)-phenyl]-4-isopropyl-benzenesulfonamide, reference compound] came in with an inhibitory constant (Ki) in test [1] of 22 nM. Besides, in test [2], the “Ki(D2)*/Ki(D3)*” value is on record as 62.
As for `CCCNCCc1ccc(CS(=O)(=O)c2ccc(C(C)C)cc2)cc1.Cl` [Example 28, {2-[4-(4-Isopropyl-benzenesulfonylmethyl)-phenyl]-ethyl}-propyl-amine×HCl], in test [1] (setting [3]), the Ki came out at 4.8 nM. For the same compound, the “Ki(D2)*/Ki(D3)*” value in test [2] turned out to be 130.
`CCCN(CCC)CCc1ccc(NS(=O)(=O)c2ccc(C(C)C)cc2)cc1` [Example 8, N-[4-(2-Dipropylamino-ethyl)-phenyl]-4-isopropyl-benzenesulfonamide×HCl]: the Ki in test [1] (setting [3]) was found to be 0.2 nM. The “Ki(D2)*/Ki(D3)*” value in test [2] was 54.
`CCCN1CCCC1Cc1ccc(NS(=O)(=O)c2ccc(C(C)C)cc2)cc1` (centres unmarked) [Example 11, 4-Isopropyl-N-[4-(1-propyl-pyrrolidin-2-ylmethyl)-phenyl]-benzenesulfonamide]: in test [1] (setting [3]), the inhibition constant Ki was 0.58 nM. For the same compound, the “Ki(D2)*/Ki(D3)*” value in test [2] is on record as 16.
In test [1], `C=CCN(CC=C)CCc1ccc(CS(=O)(=O)c2ccc(C(C)C)cc2)cc1` [Example 23, Diallyl-{2-[4-(4-isopropyl-benzenesulfonylmethyl)-phenyl]-ethyl}-amine×HCl] came in with a Ki of 8.4 nM. Moreover, the “Ki(D2)*/Ki(D3)*” value in test [2] was 59.
Consider `CCCN[C@@H](C)Cc1ccc(NS(=O)(=O)c2ccc(OC(F)(F)F)cc2)cc1` [Example 1, N-[4-((S)-2-Propylamino-propyl)-phenyl]-4-trifluoromethoxy-benzenesulfonamide], for which, in test [1], the Ki was 43 nM. Besides, the “Ki(D2)*/Ki(D3)*” value in test [2] stood at 41.

These data come from patent publication US8232426B2, “Aminoethylaromatic compounds suitable for treating disorders that respond to modulation of the dopamine D3 receptor” (Abbott GmbH & Co. KG, priority 2004, dated 2012).
